According to US20250275953A1, “VODOBATINIB FOR REDUCING PROGRESSION OF PARKINSON'S DISEASE” (Sun Pharma Advanced Research Company Ltd., priority 2022, published 2025):

Legend:
Arg = Arg (Homo sapiens, UniProt P42684); experiment: Biochemical kinase assay
From the text: Conventional biochemical kinase assays, using radioactivity and fluorescence as readouts, were used to derive half maximal-inhibitory concentrations (IC50) values.

c-Abl = c-Abl (Homo sapiens, UniProt P00519); experiment: Competition binding KINOMEscan assay (DiscoverX); conditions: read-out: Kd, Binding Assay hAbl
Sequence of c-Abl (P00519 whole entry): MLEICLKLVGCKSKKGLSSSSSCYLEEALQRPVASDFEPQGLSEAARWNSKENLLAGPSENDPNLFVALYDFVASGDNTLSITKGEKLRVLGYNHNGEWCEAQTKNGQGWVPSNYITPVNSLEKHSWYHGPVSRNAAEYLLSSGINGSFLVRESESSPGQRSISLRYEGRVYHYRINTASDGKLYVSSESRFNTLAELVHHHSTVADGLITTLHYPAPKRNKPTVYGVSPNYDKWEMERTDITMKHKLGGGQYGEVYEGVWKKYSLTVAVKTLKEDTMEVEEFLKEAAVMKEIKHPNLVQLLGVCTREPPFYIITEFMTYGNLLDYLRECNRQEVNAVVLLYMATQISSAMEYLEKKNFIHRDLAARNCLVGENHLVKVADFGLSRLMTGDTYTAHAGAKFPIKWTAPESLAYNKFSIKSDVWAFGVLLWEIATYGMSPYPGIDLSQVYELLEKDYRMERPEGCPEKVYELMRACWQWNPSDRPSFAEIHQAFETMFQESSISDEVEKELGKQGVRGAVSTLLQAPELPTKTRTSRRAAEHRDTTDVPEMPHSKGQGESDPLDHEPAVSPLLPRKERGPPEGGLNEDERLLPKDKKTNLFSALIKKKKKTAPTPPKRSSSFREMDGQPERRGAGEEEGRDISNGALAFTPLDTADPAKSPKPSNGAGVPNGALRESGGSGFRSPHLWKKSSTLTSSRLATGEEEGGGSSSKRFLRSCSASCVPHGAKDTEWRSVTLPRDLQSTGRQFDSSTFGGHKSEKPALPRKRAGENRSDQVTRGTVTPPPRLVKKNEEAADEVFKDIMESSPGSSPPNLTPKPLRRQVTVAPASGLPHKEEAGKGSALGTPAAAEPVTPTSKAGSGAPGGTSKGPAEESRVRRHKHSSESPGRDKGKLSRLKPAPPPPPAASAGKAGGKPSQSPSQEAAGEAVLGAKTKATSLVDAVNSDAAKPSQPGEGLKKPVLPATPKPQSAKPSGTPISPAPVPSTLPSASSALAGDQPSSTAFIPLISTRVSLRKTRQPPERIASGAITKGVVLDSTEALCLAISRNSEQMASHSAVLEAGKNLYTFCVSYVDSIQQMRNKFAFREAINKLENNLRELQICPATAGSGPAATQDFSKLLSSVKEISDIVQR
Description: The binding affinity of vodobatinib to c-Abl was determined in a competition binding KINOMETM scan assay. […] Liganded beads were blocked with excess biotin, and washed with blocking buffer (SEA BLOCK Pierce), with 1% BSA, 0.05% Tween 20, 1 mM DTT) to remove unbound ligand and reduce non-specific binding. […] The kinase concentration in the eluates was measured by qPCR. The kinase concentrations in test compound treated wells were compared with that in the non-treated wells across the concentration range to generate the Kd values.

[1] = Exposure on transition from capsule to powder, phase 2 study in early PD; type: in vivo, human; conditions: on average
Description: A phase 2, randomized, double-blind, placebo-controlled study of vodobatinib in approximately 504 subjects with early Parkinson's disease is ongoing. The subjects are being administered a low dose (96 mg capsule or 192 mg powder of vodobatinib) or high dose (192 mg capsule or 384 mg powder of vodobatinib). The subjects are initially administered the capsule and then transitioned to the powder. […] The objective of the study is to determine if vodobatinib reduces the rate of progression of early-stage Parkinson's disease over 40 weeks, as defined by the sum of the MDS-UPDRS (Movement Disorder Society-Unified Parkinson's Disease Rating Scale) Parts 2 and 3 scores.

Sequence of Arg (P42684 whole entry): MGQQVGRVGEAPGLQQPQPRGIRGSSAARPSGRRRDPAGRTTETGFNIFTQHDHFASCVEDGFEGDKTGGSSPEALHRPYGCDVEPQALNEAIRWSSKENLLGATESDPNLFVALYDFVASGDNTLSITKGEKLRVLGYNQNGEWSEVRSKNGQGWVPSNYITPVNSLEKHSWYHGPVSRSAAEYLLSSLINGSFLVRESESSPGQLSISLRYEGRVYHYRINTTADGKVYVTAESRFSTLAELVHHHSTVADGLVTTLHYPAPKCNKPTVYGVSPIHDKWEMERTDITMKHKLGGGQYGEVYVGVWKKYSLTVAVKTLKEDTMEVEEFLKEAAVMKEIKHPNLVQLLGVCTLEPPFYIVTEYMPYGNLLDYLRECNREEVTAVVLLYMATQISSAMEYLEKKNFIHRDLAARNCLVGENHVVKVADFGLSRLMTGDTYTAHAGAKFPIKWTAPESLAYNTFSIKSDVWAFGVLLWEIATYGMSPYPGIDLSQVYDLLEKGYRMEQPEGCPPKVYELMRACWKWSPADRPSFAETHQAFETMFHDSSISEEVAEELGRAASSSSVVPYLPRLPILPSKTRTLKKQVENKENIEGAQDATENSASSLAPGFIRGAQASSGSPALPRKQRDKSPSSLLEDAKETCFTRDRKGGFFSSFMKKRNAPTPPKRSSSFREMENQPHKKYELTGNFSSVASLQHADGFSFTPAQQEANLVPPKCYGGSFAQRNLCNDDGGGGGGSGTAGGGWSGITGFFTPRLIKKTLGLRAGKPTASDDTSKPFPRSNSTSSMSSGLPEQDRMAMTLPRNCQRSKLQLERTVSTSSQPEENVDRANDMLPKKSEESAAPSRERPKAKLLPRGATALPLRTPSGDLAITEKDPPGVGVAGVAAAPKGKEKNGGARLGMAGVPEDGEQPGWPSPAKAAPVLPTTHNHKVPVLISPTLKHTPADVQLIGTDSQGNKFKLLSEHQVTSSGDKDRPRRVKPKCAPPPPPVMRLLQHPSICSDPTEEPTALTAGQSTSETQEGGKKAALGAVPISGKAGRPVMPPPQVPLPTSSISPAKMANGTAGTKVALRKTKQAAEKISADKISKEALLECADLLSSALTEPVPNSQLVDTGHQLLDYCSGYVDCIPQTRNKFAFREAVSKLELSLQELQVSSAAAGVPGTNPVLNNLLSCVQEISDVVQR

Compound: Cc1ccc(C(=O)NNC(=O)c2c(C)cccc2Cl)cc1C#Cc1cnc2ccccc2c1 [N′-(2-chloro-6-methylbenzoyl)-4-methyl-3-[2-(3-quinolyl)ethynyl]-benzohydrazide]
- IC50 (Arg): 0.8 nM
- Kd (c-Abl): 0.98 nM
- increase in exposure, capsule to powder (96 to 192 mg or 192 to 384 mg) [1]: approximately 1.4 fold
